Where two headings read alike, the source gives them in different places.
Assays:
[1] = test system: men with psychogenic male erectile dysfunction (MED); test: Pilot Study #6, third phase: home use, reported success of intercourse (Sexual Function questionnaire); type: in vivo, human; settings: 4 or 6 mg APO sublingual tablets
[2] = test system: non-vasculogenic impotent patients; test: Dose Evaluation Study: clinical response to sublingual apomorphine tablets before intercourse; settings: for Positive Responses % / Positive Responses No.: 20 days
[3] = in vivo; for Vd (SS) / Vd (beta): male, human
[4] = test system: patients with psychogenic impotence
[5] = cited from earlier work
[6] = test system: men with psychogenic male erectile dysfunction (MED); test: Pilot Study #6, third phase: home use, reported success of intercourse (Sexual Function questionnaire); type: in vivo, human; settings: for Reported Success by Tablet Strength: home use; for Reported Success, Overall: all doses, 20/29
Excerpt: The third phase, a home-use phase, lasted 5 weeks. During this phase, subjects attempted coitus at least once each week after taking a single APO tablet. After each attempt the subject and their partner completed a Sexual Function questionnaire (Table XVII).
During the third phase, subjects had recorded at baseline, their satisfaction, erection, number of attempts, and successful intercourse on a VAS scale. Evaluable subjects first recorded a success rate, then completed VAS for erection results and satisfaction with intercourse following take-home treatment. Success rate was calculated for mg as well as μg/kg body weight doses (males). Several evaluations of the data were made including the male and female responses to treatments. The overall average success rate is 69% with APO treatment which is much higher than the average baseline rate 28% (Tables XXI, XXII).

[7] = clinical; settings: male, human, in vivo; for clearance: Cl
[8] = test system: men with psychogenic male erectile dysfunction (MED); test: Pilot Study #6: safety and tolerance of escalating APO doses (adverse events, serum chemistry, vital signs)
Protocol: A clinical study of patient tolerance of escalating doses in sublingual tablet administration of APO for the treatment of psychogenic male erectile dysfunction was performed.
In the second phase, subjects returned to the clinic for four visits, each visit one week apart. Subjects received one sublingual administration of either placebo, or 4, 6 and 8 mg APO at each visit. Doses of APO were administered in ascending order with the placebo being randomly assigned for use at one of the four visits. The procedures performed before and after drug administration were the same as those in the first phase.
Fifty males with psychogenic MED were enrolled in this three phase trial. The first aim of this study was to determine the safety and tolerance of APO in the treatment of MED.

[9] = test system: patients with psychogenic impotence; test: Pilot Study #3: aqueous intranasal spray (1.25 mg per puff), […] erectile response, adverse effects; type: in vivo, human
Excerpt: The first patient was an anxious person who had been experiencing erectile dysfunction for two years.

[10] = 3 mg tablet 20 minutes prior to intercourse, 5 patients
[11] = 4 mg tablet 20 minutes prior to intercourse, 5 patients
[12] = 5 mg tablet 20 minutes prior to intercourse, 10 patients
[13] = 6 mg tablet 20 minutes prior to intercourse, 10 patients
[14] = 7 mg tablet 20 minutes prior to intercourse, 10 patients
[15] = 8 mg tablet 20 minutes prior to intercourse, 10 patients
[16] = 10 mg tablet 20 minutes prior to intercourse, 10 patients
[17] = liquid apomorphine sublingual, 10 mg and 20 mg, ten evaluable patients
[18] = liquid sublingual 10 mg and 20 mg
[19] = Durif, F. et al., s.l., 7 × 3 mg tablets, 0.3 mg/kg, 7 subjects
[20] = Durif, F. et al., s.l., 14 × 3 mg tablets, 0.6 mg/kg, 7 subjects
[21] = Gancher, S. T., et al., s.c., 0.02 mg/kg, 5 subjects
[22] = Gancher, S. T., et al., s.l., 3 × 6 mg tablets, 0.25 mg/kg, 5 subjects
[23] = Montastruc, J. L., et al., s.c., 0.04 mg/kg, 9 subjects
[24] = Montastruc, J. L., et al., s.l., 10 × 3 mg tablets, 0.42 mg/kg, 9 subjects
[25] = intranasal 2.5 mg, Patient No. 2

CN1CCc2cccc3c2[C@H]1Cc1ccc(O)c(O)c1-3 [apomorphine]
men with MED in whom erections were caused [1]: 72%
Positive Responses % [2, 10]: 0%
Positive Responses No. [2, 10]: 0
Nausea % ([2]; 3 mg tablet, 5 patients): 0%
Nausea No. ([2]; 3 mg tablet, 5 patients): 0
Vomiting % ([2]; 3 mg tablet, 5 patients): 0%
Vomiting No. ([2]; 3 mg tablet, 5 patients): 0
Positive Responses % [2, 11]: 40%
Positive Responses No. [2, 11]: 2
Nausea % ([2]; 4 mg tablet, 5 patients): 20%
Nausea No. ([2]; 4 mg tablet, 5 patients): 1
Vomiting % ([2]; 4 mg tablet, 5 patients): 20%
Vomiting No. ([2]; 4 mg tablet, 5 patients): 1
Positive Responses % [2, 12]: 50%
Positive Responses No. [2, 12]: 5
Nausea % ([2]; 5 mg tablet, 10 patients): 20%
Nausea No. ([2]; 5 mg tablet, 10 patients): 2
Vomiting % ([2]; 5 mg tablet, 10 patients): 10%
Vomiting No. ([2]; 5 mg tablet, 10 patients): 1
Positive Responses % [2, 13]: 70%
Positive Responses No. [2, 13]: 7
Nausea % ([2]; 6 mg tablet, 10 patients): 20%
Nausea No. ([2]; 6 mg tablet, 10 patients): 2
Vomiting % ([2]; 6 mg tablet, 10 patients): 20%
Vomiting No. ([2]; 6 mg tablet, 10 patients): 2
Positive Responses % [2, 14]: 70%
Positive Responses No. [2, 14]: 7
Nausea % ([2]; 7 mg tablet, 10 patients): 20%
Nausea No. ([2]; 7 mg tablet, 10 patients): 2
Vomiting % ([2]; 7 mg tablet, 10 patients): 20%
Vomiting No. ([2]; 7 mg tablet, 10 patients): 2
Positive Responses % [2, 15]: 70%
Positive Responses No. [2, 15]: 7
Nausea % ([2]; 8 mg tablet, 10 patients): 30%
Nausea No. ([2]; 8 mg tablet, 10 patients): 3
Vomiting % ([2]; 8 mg tablet, 10 patients): 30%
Vomiting No. ([2]; 8 mg tablet, 10 patients): 3
Positive Responses % [2, 16]: 80%
Positive Responses No. [2, 16]: 8
Nausea % ([2]; 10 mg tablet, 10 patients): 40%
Nausea No. ([2]; 10 mg tablet, 10 patients): 4
Vomiting % ([2]; 10 mg tablet, 10 patients): 40%
Vomiting No. ([2]; 10 mg tablet, 10 patients): 4
plasma concentration compared with previous reports (Table XVI) [3]: produced a lower plasma concentration
Vd (SS) ([3]; 4 mg): 1.836 mL
Vd (beta) ([3]; 4 mg): 4.076 mL
Vd (SS) ([3]; 8 mg): 46.30 mL
Vd (beta) ([3]; 8 mg): 69.09 mL
failures with apomorphine [4, 17]: 30%
successes (score of no less than 16 on both neutral and erotic video segments) [4, 17]: 70%
adverse effects [4, 18]: Adverse effects were reported at both dose levels
erectile response [4, 18]: produce erectile responses
longest duration of side effects [4, 18]: 30 to 40 min
onset of adverse effects [4, 18]: ten to fifteen
yawns per session ([4]; liquid sublingual 10 mg and 20 mg, each patient): two to five
erectile response ([4]; liquid sublingual 10 mg and 20 mg, listed as Apomorphine): effective in inducing erectile episodes without increasing libido
patients successful with apomorphine among those who had failed a trial of yohimbine HCl ([4]; of group of eight, liquid sublingual 10 mg and 20 mg): 6
patients developing nausea, diaphoresis, dizziness, blurred vision, decrease in blood pressure and heart rate ([4]; of ten evaluable, liquid sublingual 10 mg and 20 mg): eight
Cmax ([5]; Durif, F. et al., Clin. Neuropharm. 16:157-166, s.l., 7 × 3 mg tablets, 0.3 mg/kg, 7 subjects): 0.0075 µg/mL
AUC [5, 19]: 929 ng·min/mL
Cl [5, 19]: 2.1 L/h/kg
MRT [5, 19]: 128 min
Tmax [5, 19]: 31.5 min
Vd [5, 19]: 3.4 L/kg
AUC [5, 20]: 2,277 min*ng/ml
Cl [5, 20]: 1.8 L/h/kg
Cmax [5, 20]: 0.0227 µg/mL
MRT [5, 20]: 125 min
Tmax [5, 20]: 38.3 min
Vd [5, 20]: 2.8 L/kg
Cmax ([5]; Gancher, S. T., et al., Movement Disorders 6:212-216 (1991), s.l., 3 × 6 mg tablets, 0.25 mg/kg, 5 subjects): 0.0143 µg/mL
Vd ([5]; Gancher, S. T., et al., i.v., […], 5 subjects, *Calculated): 0.043* l/kg
Tmax ([5]; Gancher, S. T., et al., i.v., […], 5 subjects): 6.7 min
AUC [5, 21]: 592.7 ng·min/mL
Cmax [5, 21]: 0.01936 µg/mL
Tmax [5, 21]: 6.5 min
AUC [5, 22]: 1,057 min*ng/ml
Tmax [5, 22]: 45 min
Cmax ([5]; Montastruc, J. L., et al., Clin. Neuropharmacol. 14:432-437 (1991), s.l., 10 × 3 mg tablets, 0.42 mg/kg, 9 subjects): 0.028 µg/mL
AUC [5, 23]: 837 ng·min/mL
Cmax [5, 23]: 0.026 µg/mL
Tmax [5, 23]: 18 min
AUC [5, 24]: 1,882 min*ng/ml
Tmax [5, 24]: 41 min
Reported Success by Tablet Strength ([6]; Female group, 4 mg): 5/7 (71.4%)
Reported Success by Tablet Strength ([6]; Female group, 8 mg): 4/7 (57.1%)
Reported Success by Apomorphine Dosage ([6]; Female group, 35-50 μg/kg): 3/5 (60.0%)
Reported Success by Apomorphine Dosage ([6]; Female group, 50-74 μg/kg): 9/11 (81.8%)
Reported Success by Apomorphine Dosage ([6]; Female group, 50-74 μg/kg, listed as APO): 82%
Reported Success by Apomorphine Dosage ([6]; Female group, >74 μg/kg): 8/13 (61.5%)
Reported Success, Overall ([6]; Female group): (69.0%)
Reported Success by Tablet Strength ([6]; Male group, 4 mg): 5/7 (71.4%)
Reported Success by Tablet Strength ([6]; Male group, 8 mg): 4/7 (57.1%)
Reported Success by Apomorphine Dosage ([6]; Male group, 35-50 μg/kg): 4/5 (80.0%)
Reported Success by Apomorphine Dosage ([6]; Male group, 50-74 μg/kg): 8/11 (72.7%)
Reported Success by Apomorphine Dosage ([6]; Male group, 50-74 μg/kg, listed as APO): 80%
Reported Success by Apomorphine Dosage ([6]; Male group, >74 μg/kg): 8/13 (61.5%)
Reported Success, Overall ([6]; Male group): (69.0%)
overall average success rate ([6]; take-home APO treatment, average baseline rate 28%): 69%
Vd ([7]; 0.06 mg/kg): 2.33 L/kg
clearance ([7]; iv, 0.01 mg/kg): 4.37 L/h/kg
Vd ([7]; iv, 0.01 mg/kg): 3.35 L/kg
AUC(0-inf) ([7]; iv, 1 mg, AUC (0-inf)): 3.45 ng·h/mL
clearance ([7]; iv, 1 mg): 5100 mL/min
Cmax ([7]; iv, Cmax): 0.00836 µg/mL
Ke (IV Administration, mean (Table XII)): 0.0237 min⁻¹
Ke (IV administration 1 mg, mean, n = 7): 0.0237 min⁻¹
Vd (male, human, in vivo, 0.114 mg/kg): 2.07 L/kg
Ke (sublingual 4 mg dose, individual subjects #1, #3, #6, #7): 0.0060 min⁻¹
Ke (sublingual 8 mg Dose, mean (Table XII)): 0.0056 min⁻¹
Ke (sublingual administration 8 mg dose, mean, n = 4): 0.0056 min⁻¹
cardiovascular and other adverse events ([8]; 4, 6, 8 mg sublingual, with bradycardia, dizziness, syncope, pallor): Hypotension was reported as an adverse event in some subjects
incidence of vomiting ([8]; all administered doses): less than 3%
nausea cases considered severe ([8]; all administered doses): two
overall incidence of nausea ([8]; all administered doses (4, 6, 8 mg sublingual)): less than 13 % of the subjects
changes in serum chemistry values and vital signs ([8]; except one subject with abnormal liver function of unknown origin): no clinically significant changes
adverse effects [9, 25]: major hemodynamic adverse effects
blood pressure (hypotension) [9, 25]: 70/50
total yawns ([9]; intranasal 2.5 mg, Patient No. 2, ten minutes post-dosing): five
erectile response ([9]; intranasal administration): effective in eliciting an erection
score on both erotic and neutral video segments ([9]; intranasal spray 2.5 mg, 3.75 mg, first patient, categorized as a failure): less than sixteen
time to adverse effects (nausea and vomiting, dizziness, blurred vision, diaphoresis) ([9]; intranasal spray, first patient, after inadvertently increased dose): five

Reference: patent US6566368B2, “Apomorphine-containing dosage form for ameliorating male erectile dysfunction” (Pentech Pharmaceuticals, Inc., priority 1994, dated 2003)
